Here are results for two molecules from patent US7666254B1, “Borate compositions for wood preservation” (Osmose, Inc., priority 2006, dated 2010).

The test system of this assay is Coptotermes acinaciformis. Description: ensis mean mass loss test: laboratory termite bioassay of treated Pinus radiata specimens, eight weeks. It counts as in vivo. Particulars: 8 weeks exposure, mean of 6 replicates, SE in parentheses. An excerpt:
Pinus radiata D. Don (Radiata pine) specimens (20×20×10 mm long) were cut from the sapwood of several pruned, fast-grown trees that had been harvested from the northern plantation forests of […], Australia. These samples are referred to as “ensis samples.” Trees were 20 to 24 years old. Specimens were pooled and randomly allocated into treatment groups. Prior to treatment, specimens were conditioned to 9.5% moisture content (m.c.). […] The solutions were used immediately. The following impregnation protocol was used: (the “ensis impregnation protocol”). Specimens were treated by drawing a vacuum of -95 kPa for 30 minutes, introducing the preservative solution while under vacuum, and immediately releasing the vacuum. Specimens were allowed to absorb the solution for 30 minutes atmospheric pressure. Each specimen was weighed before and immediately after treatment to determine retention. The specimens closest to the desired retentions were selected. Prior to bioassay against termites, all test specimens from each treatment were artificially weathered to H2 conditions by vacuum oven drying for three days at 40° C. and -95 kPa. After removal from the vacuum ovens, the specimens were cooled in a desiccator before being weighed to obtain initial masses. At each stage, care was taken to ensure that specimens of different treatments were kept separate. The weathering step removed from the specimens any volatiles that may be deleterious to termite health and vigor, as well as to provide artificial ageing. The test specimens were subjected to bioassay in accordance with the minimum requirements specified for H2 conditions in the Australasian Wood Preservation Committee Protocols for Assessment of Wood Preservatives (AWPC 1997), using one species of subterranean termite, Coptotermes acinaciformis. C. acinaciformis is widely distributed throughout mainland Australia and is responsible for greater economic loss that all other species of Australian termites combined (Gay and Calaby 1970). Only fresh, field collected stocks of termites were used for the bioassay. These termites were collected from the Northern Territory, transported by air to the Ensis Clayton laboratory and used promptly. Six replicate test specimens of each treatment were exposed to termites. A further three specimens were designated as vacuum oven controls. The following testing protocol was used (the “[…] loss test”). A single test specimen was centered on a 29 mm plastic disc to stop diffusion of boron out of the specimen. They were centrally placed on a moist matrix of C. acinaciformis finely ground mound material (20g, 100% m.c.) within a 250 ml glass jar (96 mm high, 62 mm diameter). Five grams of C. acinaciformis were added to each jar. A plastic lid, with a central 9 mm diameter ventilator, closed the jar (FIG. 1). The duration of the bioassay was eight weeks. The bioassay was conducted in an insectary maintained at 27° C., 70% RH. […] At the conclusion of the bioassay, test specimens were removed from the jars and cleaned. The test specimens, as well as vacuum oven controls, were then vacuum oven dried under the same conditions that were used to obtain the initial masses (i.e., 3 days at 40° C. and -95 kPa). After cooling and weighing the specimens, the final and initial masses were compared to obtain mass loss. If necessary, the mass loss of specimens exposed to termites was adjusted to accommodate any changes recorded in the vacuum oven controls.

As to `O.O.O.O.O=BOB1OB(OB=O)OB2OB([O-])OB([O-])OB(O1)O2.[Na+].[Na+]` [BAE, disodium octaborate tetrahydrate], the Mean mass loss by setting is: (target retention 0.1% BAE (% m/m in OD wood)) 93.5 (3.9) %; (target retention 0.2% BAE) 30.9 (5.3) %; (target retention 0.5% BAE) 48.6 (12.7) %.
Regarding `Cc1c(COC(=O)[C@@H]2[C@H](/C=C(\Cl)C(F)(F)F)C2(C)C)cccc1-c1ccccc1` (racemic) [bifenthrin], the Mean mass loss was 15.6 (2.9) % (target retention 2.5 g/m^3 bifenthrin), 4.8 (0.5) % (target retention 5.0 g/m^3 bifenthrin) and 4.2 (0.4) % (target retention 7.5 g/m^3 bifenthrin).
